Assay results published in patent US9469645B2, “Compounds and compositions for the treatment of parasitic diseases” (Novartis AG, priority 2009, dated 2016).

Legend:
W2 strain = experiment: parasite proliferation assay in infected red blood cells (SYBR Green I), W2 strain; assay type: cell-based; conditions: Erythrocyte
Text: Compounds of the invention can be assayed to measure their capacity to inhibit proliferation of parasitemia in infected red blood cells. The proliferation is quantified by the addition of SYBR Green I (INVITROGEN)® dye which has a high affinity for double stranded DNA.

3D7 P. falciparum strain = experiment: parasite proliferation assay in infected red blood cells (SYBR Green I); assay type: cell-based, Plasmodium falciparum; conditions: Plasmodium falciparum, 3D7, Erythrocyte, 3D7 strain; read-out: EC50 3D7 strain
Outline: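 P. falciparum 3D7 grown in O+ human erythrocytes to 3–8% parasitemia and exposed to compounds. Proliferation read as the increase in parasite DNA. Detection used SYBR Green I in saponin/triton-X/EDTA lysis buffer, with overnight lysis at room temperature.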

CC(C)(C)Nc1c(-c2ccc(F)cc2)nc2n1CCNC2 [Compound 297, N-tert-butyl-2-(4-fluorophenyl)-5,6,7,8-tetrahydroimidazo[1,2-a]pyrazin-3-amine]
EC50 (W2 strain): 8500 nM | EC50 (3D7 P. falciparum strain): 5290 nM

Cc1ccc(Nc2c(-c3ccc(F)cc3)nc3n2CCN(C(=O)[C@@H](O)C(C)C)C3)cc1 [Compound 204]
EC50 (W2 strain): 10 nM | EC50 (3D7 P. falciparum strain): 10 nM

Cc1ccc(Nc2c(-c3cccnc3)nc3n2CCCC3)cc1 [Compound 737]
EC50 (W2 strain; Plasmodium falciparum): 4090 nM | EC50 (3D7 P. falciparum strain): 7850 nM

CCCCCNCC(=O)N1CCn2c(nc(-c3ccc(F)cc3)c2Nc2ccc(C)cc2)C1 [Compound 308]
EC50 (W2 strain): 68 nM | EC50 (3D7 P. falciparum strain): 60 nM

CCCNC(=O)C[C@H](NC(=O)OC(C)(C)C)C(=O)N1CCn2c(nc(-c3ccc(F)cc3)c2Nc2ccc(C)cc2)C1 [Compound 186]
EC50 (W2 strain): 2560 nM | EC50 (3D7 P. falciparum strain): 5630 nM

Cc1cc(Nc2c(-c3ccc(F)cc3)nc3n2CCN(C(=O)C(C)(C)N)C3)ccc1Cl [Compound 629]
EC50 (W2 strain; Plasmodium falciparum): 23 nM | EC50 (3D7 P. falciparum strain): 17 nM

N[C@@H](Cc1ccccc1)C(=O)N1CCn2c(nc(-c3ccc(F)cc3)c2Nc2ccc(Cl)c(F)c2)C1 [Compound 324]
EC50 (W2 strain): 30 nM | EC50 (3D7 P. falciparum strain): 30 nM

Cc1ccc(Nc2c(-c3ccc(F)cc3)nc3n2CC(C)NC3)cc1 (centres unmarked) [Compound 329]
EC50 (W2 strain): 116 nM | EC50 (3D7 P. falciparum strain): 150 nM

Cc1ccc(Nc2c(-c3ccc(F)cc3)nc3n2CCN(C(=O)C(C)(C)c2ccc(Cl)cc2)C3)cc1 [Compound 174]
EC50 (W2 strain): 1480 nM | EC50 (3D7 P. falciparum strain): 6060 nM

CC1(C)NCCn2c1nc(-c1ccc(F)cc1)c2C(=O)Nc1ccc(F)cc1 [Compound 707, N,2-bis(4-fluorophenyl)-8,8-dimethyl-5,6,7,8-tetrahydroimidazo[1,2-a]pyrazine-3-carboxamide]
EC50 (W2 strain; Plasmodium falciparum): > 10000 nM | EC50 (3D7 P. falciparum strain): 6540 nM

Cc1ccc(Cc2c(-c3ccc(F)cc3)nc3n2CCN(C(=O)CN)C3(C)C)cc1 [Compound 694]
EC50 (W2 strain; Plasmodium falciparum): 7 nM | EC50 (3D7 P. falciparum strain): 11 nM

Cc1ccc(Nc2c(-c3ccc(F)cc3)nc3n2CCN(C(=O)[C@@H](O)CC2CCCCC2)C3)cc1 [Compound 145]
EC50 (W2 strain): 68 nM | EC50 (3D7 P. falciparum strain): 90 nM

CC(C)(N)C(=O)N1CCn2c(nc(-c3ccc(F)cc3)c2Nc2ccc(Cl)cc2)C1 [Compound 39]
EC50 (W2 strain): 24 nM | EC50 (3D7 P. falciparum strain): 20 nM

CC1CC(Nc2c(-c3ccc(F)cc3)nc3n2CCN(C(=O)CN)C3(C)C)CC(C)(C)C1 (centres unmarked) [Compound 666]
EC50 (W2 strain; Plasmodium falciparum): 4970 nM | EC50 (3D7 P. falciparum strain): > 10000 nM

O=C(CN1CCOCC1)N1CCn2c(nc(-c3ccc(F)cc3)c2Nc2ccc(F)cc2)C1 [Compound 41]
EC50 (W2 strain): 1790 nM | EC50 (3D7 P. falciparum strain): 2650 nM

Cc1ccc(Nc2c(-c3ccc(F)cc3)nc3n2CCN(C(=O)C2CCOCC2)C3)cc1 [Compound 209]
EC50 (W2 strain): 4360 nM | EC50 (3D7 P. falciparum strain): 11600 nM

CN1CCC(N2CCN(c3c(-c4ccc(F)cc4)nc4n3CCN(C(=O)CN)C4(C)C)CC2)CC1 [Compound 673]
EC50 (W2 strain; Plasmodium falciparum): > 8720 nM | EC50 (3D7 P. falciparum strain): 8870 nM

CC1(C)CN(C(=O)CN)Cc2nc(-c3cccc(F)c3)c(Nc3ccc(F)c(F)c3)n21 [Compound 622]
EC50 (W2 strain; Plasmodium falciparum): 121 nM | EC50 (3D7 P. falciparum strain): 100 nM

Cc1ccc(Nc2c(-c3ccc(F)cc3F)nc3n2CCN(C(=O)C(C)(C)N)C3)cc1 [Compound 395]
EC50 (W2 strain): 246 nM | EC50 (3D7 P. falciparum strain): 440 nM

COc1ccc(C(O)C(=O)N2CCn3c(nc(-c4ccc(F)cc4)c3Nc3ccc(C)cc3)C2)cc1 (centres unmarked) [Compound 122]
EC50 (W2 strain): 154 nM | EC50 (3D7 P. falciparum strain): 180 nM

CC1(C)c2nc(-c3ccc(F)cc3)c(NC3CCCCCC3)n2CCN1C(=O)CN [Compound 665]
EC50 (W2 strain; Plasmodium falciparum): 69 nM | EC50 (3D7 P. falciparum strain): 102 nM

CN1Cc2nc(-c3ccc(F)cc3)c(Nc3ccc(Cl)c(F)c3)n2C(C)(C)C1=O [Compound 615]
EC50 (W2 strain; Plasmodium falciparum): 5610 nM | EC50 (3D7 P. falciparum strain): 6410 nM

Cc1ccc(Nc2c(-c3ccc(F)cc3)nc3n2CCN(C(=O)[C@@H](O)c2ccccc2)C3)cc1 [Compound 138]
EC50 (W2 strain): 15 nM | EC50 (3D7 P. falciparum strain): 10 nM

CC(C)(N)C(=O)N1CCn2c(nc(-c3ccc(F)cc3)c2Nc2ccc(C(F)(F)F)c(Cl)c2)C1 [Compound 633]
EC50 (W2 strain; Plasmodium falciparum): 331 nM | EC50 (3D7 P. falciparum strain): 528 nM

Cc1cc(Nc2c(-c3cccc(F)c3)nc3n2CC(=O)N(CC2CNC2)C3(C)C)ccc1F [Compound 686]
EC50 (W2 strain; Plasmodium falciparum): 524 nM | EC50 (3D7 P. falciparum strain): 628 nM

O=C(CN1CCC(F)CC1)N1CCn2c(nc(-c3ccc(F)cc3)c2Nc2ccc(F)cc2)C1 [Compound 60]
EC50 (W2 strain): 2130 nM | EC50 (3D7 P. falciparum strain): 2460 nM

Fc1ccc(Nc2c(-c3ccc(F)cc3)nc3n2CCNC3)cc1 [Example 28, N,2-bis(4-fluorophenyl)-5,6,7,8-tetrahydroimidazo[1,2-a]pyrazin-3-amine]
EC50 (W2 strain): 175 nM | EC50 (3D7 P. falciparum strain): 200 nM

CC1(C)c2nc(-c3ccc(F)cc3)c(Oc3ccc(F)cc3)n2CCN1C(=O)CN [Compound 709, 2-amino-1-(3-(4-fluorophenoxy)-2-(4-fluorophenyl)-8,8-dimethyl-5,6-dihydroimidazo[1,2-a]pyrazin-7(8H)-yl)ethanone]
EC50 (W2 strain; Plasmodium falciparum): 8 nM | EC50 (3D7 P. falciparum strain): 3 nM

Cc1ccc(Nc2c(-c3ccc(F)cc3)nc3n2CCN(C(=O)[C@H](O)c2ccccc2)C3)cc1 [Compound 137]
EC50 (W2 strain): 12 nM | EC50 (3D7 P. falciparum strain): 10 nM

CC(C)(O)CC(=O)N1CCn2c(nc(-c3ccc(F)cc3)c2Nc2ccc(C#N)cc2)C1 [Compound 265]
EC50 (W2 strain): 1580 nM | EC50 (3D7 P. falciparum strain): 1350 nM

COCCCN1C(=O)Cn2c(nc(-c3cccc(F)c3)c2Nc2ccc(F)c(C)c2)C1(C)C [Compound 691]
EC50 (W2 strain; Plasmodium falciparum): 60 nM | EC50 (3D7 P. falciparum strain): 68 nM

CCCCCNC(=O)C[C@H](NC(=O)OC(C)(C)C)C(=O)N1CCn2c(nc(-c3cccc(F)c3)c2Nc2ccc(F)cc2)C1 [Compound 250]
EC50 (W2 strain): 3980 nM | EC50 (3D7 P. falciparum strain): 3880 nM

CC(C)(N)C(=O)N1CCn2c(nc(-c3ccc(F)cc3)c2Cc2ccc(F)cc2)C1 [Compound 697]
EC50 (W2 strain; Plasmodium falciparum): 256 nM | EC50 (3D7 P. falciparum strain): 362 nM

C[C@@H](N)C(=O)N1CCn2c(nc(-c3ccc(F)cc3)c2Nc2ccc(Cl)c(F)c2)C1 [Compound 327]
EC50 (W2 strain): 21 nM | EC50 (3D7 P. falciparum strain): 30 nM

Cc1ccc(NCC(=O)N2CCn3c(nc(-c4ccc(F)cc4)c3Nc3ccc(C)cc3)C2)cc1 [Compound 362]
EC50 (W2 strain): 203 nM | EC50 (3D7 P. falciparum strain): 810 nM

Cc1ccc(Nc2c(-c3ccc(F)cc3)nc3n2CCN(C(=O)Cc2ccncc2)C3)cc1 [Compound 227]
EC50 (W2 strain): 103 nM | EC50 (3D7 P. falciparum strain): 90 nM

CC1(C)c2nc(-c3ccc(F)cc3)c(Nc3cccc(C(F)(F)F)c3)n2CCN1C(=O)CN [Compound 652]
EC50 (W2 strain; Plasmodium falciparum): 12 nM | EC50 (3D7 P. falciparum strain): 19 nM

Cc1ccc(Nc2c(-c3ccc(F)cc3)nc3cnccn23)cc1 [Example 136, 2-(4-fluorophenyl)-N-p-tolylimidazo[1,2-a]pyrazin-3-amine]
EC50 (W2 strain): 2690 nM | EC50 (3D7 P. falciparum strain): 2020 nM

Cc1ccc(Nc2c(-c3ccc(F)cc3)nc3n2CCN(C(=O)CNc2cccc(Cl)c2)C3)cc1 [Compound 361]
EC50 (W2 strain): 1140 nM | EC50 (3D7 P. falciparum strain): 2350 nM

Cc1ccc(Nc2c(-c3ccc(F)cc3)nc3n2CCN(C(=O)N2CCC(N4CCCCC4)CC2)C3)cc1 [Compound 274]
EC50 (W2 strain): 5670 nM | EC50 (3D7 P. falciparum strain): 5140 nM

Cc1ccc(Nc2c(-c3ccc(F)cc3)nc3n2CCN(C(=O)C[C@@H](N)Cc2cc(F)c(F)cc2F)C3)cc1 [Compound 172]
EC50 (W2 strain): 88 nM | EC50 (3D7 P. falciparum strain): 100 nM

Cc1cc(Nc2c(-c3ccc(F)cc3)nc3n2CC(=O)N(CCN(C)C)C3(C)C)ccc1F [Compound 683]
EC50 (W2 strain; Plasmodium falciparum): 112 nM | EC50 (3D7 P. falciparum strain): 125 nM

Cc1ccc2nc(-c3ccc(F)cc3)c(Nc3ccc(Cl)c(F)c3)n2c1 [Compound 752]
EC50 (W2 strain; Plasmodium falciparum): 2380 nM | EC50 (3D7 P. falciparum strain): 1620 nM

Cc1ccc(Nc2c(-c3ccc(F)cc3)nc3n2CCN(C(=O)CNC(N)=O)C3)cc1 [Compound 166]
EC50 (W2 strain): 2230 nM | EC50 (3D7 P. falciparum strain): 2870 nM

Cc1ccc(Nc2c(-c3ccc(F)cc3)nc3n2CCN(C(=O)C2(O)CCCC2)C3)cc1 [Compound 116]
EC50 (W2 strain): 1510 nM | EC50 (3D7 P. falciparum strain): 1640 nM

Cc1ccc(Nc2c(-c3ccc(F)cc3)nc3n2CCN(C(=O)N2CCC(N4CCCC(C)C4)CC2)C3)cc1 (centres unmarked) [Compound 273]
EC50 (W2 strain): 3470 nM | EC50 (3D7 P. falciparum strain): 3330 nM

Cc1cc(Nc2c(-c3ccc(F)cc3)nc3n2C(C)(C)C(=O)NC3)ccc1Cl [Compound 619]
EC50 (W2 strain; Plasmodium falciparum): 713 nM | EC50 (3D7 P. falciparum strain): 570 nM

Cc1ccc(Nc2c(-c3ccc(F)cc3)nc3n2CCN(C(=O)[C@@H](C)c2ccccc2)C3)cc1 [Compound 175]
EC50 (W2 strain): 105 nM | EC50 (3D7 P. falciparum strain): 80 nM

COCCCNCC(=O)N1CCn2c(nc(-c3ccc(F)cc3)c2Nc2ccc(C)cc2)C1 [Compound 310]
EC50 (W2 strain): 397 nM | EC50 (3D7 P. falciparum strain): 520 nM

Cc1ccc(Nc2c(-c3ccc(F)cc3)nc3n2CCN(C(=O)[C@@H]2CCCN2)C3)cc1 [Compound 90]
EC50 (W2 strain): 600 nM | EC50 (3D7 P. falciparum strain): 650 nM

Cc1ccc(Nc2c(-c3ccc(F)cc3)nc3n2CCN(C(=O)CN2CCC(CCN)CC2)C3)cc1 [Compound 178]
EC50 (W2 strain): 3320 nM | EC50 (3D7 P. falciparum strain): 3050 nM

NC1(C(=O)N2CCn3c(nc(-c4ccc(F)cc4)c3Nc3ccc(F)cc3)C2)CC1 [Compound 45]
EC50 (W2 strain): 1340 nM | EC50 (3D7 P. falciparum strain): 980 nM

CC(C)[C@@H](N)C(=O)N1CCn2c(nc(-c3ccc(F)cc3)c2Nc2ccc(Cl)c(F)c2)C1 [Compound 318]
EC50 (W2 strain): 98 nM | EC50 (3D7 P. falciparum strain): 150 nM

Cc1ccc(Nc2c(-c3ccc(F)cc3)nc3n2CCN(C(=O)C(Nc2ccc(C)cc2)c2ccccc2)C3)cc1 (centres unmarked) [Compound 371]
EC50 (W2 strain): 1280 nM | EC50 (3D7 P. falciparum strain): 1520 nM

Cc1ccc(Nc2c(-c3ccc(F)cc3)nc3n2CCN(C(=O)[C@@H](O)CC(C)C)C3)cc1 [Compound 134]
EC50 (W2 strain): 7 nM | EC50 (3D7 P. falciparum strain): 10 nM

Cc1ccc(Nc2c(-c3ccc(F)cc3)nc3n2CCN(C(=O)CC2CCCCO2)C3)cc1 (centres unmarked) [Compound 216]
EC50 (W2 strain): 248 nM | EC50 (3D7 P. falciparum strain): 300 nM

Cc1ccc(Nc2c(-c3ccc(F)cc3)nc3n2CCN(C(=O)[C@@H](N)C(C)(C)C)C3)cc1 [Compound 170]
EC50 (W2 strain): 54 nM | EC50 (3D7 P. falciparum strain): 90 nM

CC[C@H](N)C(=O)N1CCn2c(nc(-c3ccc(F)cc3)c2Nc2ccc(C)cc2)C1 [Compound 85]
EC50 (W2 strain): 31 nM | EC50 (3D7 P. falciparum strain): 20 nM
